Marks after values point to notes of the source that are not given here.
Tests used:
[1] = system: combined bacterial test inoculum: Acinetobacter calcoaceticus, Escherichia coli, Pseudomonas aeruginosa, Enterobacter cloacae; test: Bacterial challenge test (ASTM D2574-97, modified) in standard water based interior paint; type: cell-based; design: key to Streak plate rank, 1st inoculation 24 h / Streak plate rank, 1st inoculation 72 h / Streak plate rank, 2nd inoculation 72 h / Streak plate rank, 3rd inoculation 24 h: 0 = no growth; 1 = 1-5 Colony Forming Unit (cfu); 2 = 6-15 cfu; 3 = 16-30 cfu; 4 = 31-45 cfu; 5 = greater than 45 cfu; 5c = Confluent Growth; conditions: for Dilution plate count, 3rd inoculation 72 h / Streak plate rank, 3rd inoculation 24 h: inoculum 2.50%; for Streak plate rank, 2nd inoculation 72 h: inoculum 5%; for Streak plate rank, 1st inoculation 24 h / Streak plate rank, 1st inoculation 72 h: inoculum 10%
Description: (§1) The following bacterial and fungal challenge tests were performed to ascertain whether low concentrations of 4-isothiazolin-3-one biocidal active compounds, pyrithione, coumarin or guanidine adjuvant are sufficient to prevent microbial contamination of final products when deliberately inoculated with spoilage microbes.
(§2) The tests were performed according to ASTM standard D2574-97 (Standard Test Method for Resistance of Emulsion Paints in the Container to Attack by Microorganisms, ASTM International, West Conshohocken, Pa.), with higher inoculation volumes and frequency. A standard water based interior paint was used as the test substrate. Sample sizes of 20 g test substrate were used and the test samples were prepared in a sterile 30 mL square Nalgene bottle.
The bacteria were grown on pH 5, 7, or 9 Trypticase Soy Agar (TSA) lawns. The bacteria were grown individually on TSA and harvested by using sterile buffered water. The bacterial lawns were washed off with 30 mL of sterile water and an equal volume of each individual cell suspension was withdrawn from each serum bottle to make a combined cell suspension. Combined bacterial suspension were about 10^7 cfu/mL, which provides about 10^6 cfu/mL in the sample.
(§3) The following microorganisms were used for inoculation of the tested samples:
(§4) For the bacterial challenge testing, each sample was inoculated with a combined bacterial test inoculum volume equivalent to 10% of the total initial sample volume for the initial inoculation, 5% of the total initial sample volume for the second inoculation and 2.5% of the total initial sample volume for the third inoculation. Inoculum volumes for the fungal challenge tests were 2%, 1% and 0.5% of the total initial sample volume, respectively. Samples were inoculated every 96 h.
(§5) Concentrations of biocidal active compounds and adjuvants refer to the final concentration in the test samples prior to the first inoculation.
(§6) The efficacy of the added agent in each sample was monitored by means of a streak plate test after 24 hours (all inoculations) and 72 hours of inoculation (first and second inoculation). At 72 hours of the third inoculation performed, a dilution plate count was performed in order to obtain a quantitative measurement of contamination (cfu/mL). A count of less than 10 colony forming units per mL ([…]) is considered to show no measurable contamination. For the streak plate tests, bacterial samples were streaked on Tryptic Soy Agar (TSA) and incubated for 48 hours at 30° C. before reading. Fungal samples were streaked on Potato Dextrose Agar (PDA) and incubated for 5 days at 25° C. before reading.
(§7) The streak plates were ranked from 0-5c according to the degree of microbial growth:
(§8) The challenge tests were performed as described above.

[2] = system: fungal test inoculum: Aspergillus niger, Penicillium funiculosum, Candida albicans; test: Fungal challenge test (ASTM D2574-97, modified) in standard water based interior paint; type: cell-based; design: key to Streak plate rank, 2nd inoculation 72 h / Streak plate rank, 1st inoculation 72 h / Streak plate rank, 1st inoculation 24 h / Streak plate rank, 2nd inoculation 24 h / Streak plate rank, 3rd inoculation 24 h: 0 = no growth; 1 = 1-5 Colony Forming Unit (cfu); 2 = 6-15 cfu; 3 = 16-30 cfu; 4 = 31-45 cfu; 5 = greater than 45 cfu; 5c = Confluent Growth; conditions: for Dilution plate count, 3rd inoculation 72 h / Streak plate rank, 3rd inoculation 24 h: inoculum 0.50%; for Streak plate rank, 2nd inoculation 72 h: inoculum 1%
Description: as §1, §2
Fungal lawns were grown on Potato Dextrose Agar (PDA) or Sabouraud Dextrose Agar (SAB). Individual fungal spore suspensions were harvested by adding 10 mL of sterile 0.05% Triton X to fungal lawns. The lawns were then gently agitated by rubbing a sterile swab on the lawn, being careful not to puncture the agar. The liquid was then aseptically transferred to a sterile bottle containing sterile glass beads. The top of the bottle was closed and the bottle shaken vigorously to break up any chunks in the suspension. The shaken spore suspension was decanted through sterile fibers into another sterile bottle. The decanted spore suspension was counted using a hemocytometer. Once the spore counts were determined, each suspension was diluted in order to obtain 10^6 spore/mL. Each diluted fungal suspension was poured into a sterile container.
as §3
as §4, with “Inoculum volumes for the fungal challenge tests were 2%, 1% and 0.5% of the total initial sample volume, respectively.” left out
as §5, §6, §7, §8

For `CCCCn1sc2ccccc2c1=O` [BBIT, N-(n-butyl)-1,2-benzisothiazolin-3-one], the “Dilution plate count, 3rd inoculation 72 h” value (“Dilution plate count” for short) ([1]; 25 ppm) was 8.3 × 10^6 cfu/mL, the “Streak plate rank, 3rd inoculation 24 h” value ([1]; 25 ppm) was 5c and the “Streak plate rank, 2nd inoculation 72 h” value ([1]; 25 ppm) was 5c. For the same compound, the “Streak plate rank, 1st inoculation 24 h” value ([1]; 25 ppm) was 5c, the “Streak plate rank, 1st inoculation 72 h” value ([1]; 25 ppm) was 5c and the “Dilution plate count” value ([1]; 50 ppm) was 6.0 × 10^6 cfu/mL. The “Streak plate rank, 3rd inoculation 24 h” value ([1]; 50 ppm) was 5c, the “Streak plate rank, 2nd inoculation 72 h” value ([1]; 50 ppm) was 5c and the “Streak plate rank, 1st inoculation 24 h” value ([1]; 50 ppm) was 5c. For the same compound, the “Streak plate rank, 1st inoculation 72 h” value ([1]; 50 ppm) was 5c, the “Dilution plate count” value ([1]; 100 ppm) was 5.6 × 10^6 cfu/mL and the “Streak plate rank, 3rd inoculation 24 h” value ([1]; 100 ppm) was 5c. For the same compound, the “Streak plate rank, 2nd inoculation 72 h” value ([1]; 100 ppm) was 5c, the “Streak plate rank, 1st inoculation 24 h” value ([1]; 100 ppm) was 5c and the “Streak plate rank, 1st inoculation 72 h” value ([1]; 100 ppm) was 5c. The “Dilution plate count” value ([2]; 25 ppm) was 1.0 × 10^1 cfu/mL, the “Streak plate rank, 3rd inoculation 24 h” value ([2]; 25 ppm) was 2 (2 = 6-15 cfu) and the “Streak plate rank, 2nd inoculation 72 h” value ([2]; 25 ppm) was 0. For the same compound, the “Streak plate rank, 1st inoculation 24 h” value ([2]; 25 ppm, inoculum added was 5%) was 4* (4 = 31-45 cfu), the “Streak plate rank, 1st inoculation 72 h” value ([2]; 25 ppm, inoculum added was 5%) was 1* (1 = 1-5 Colony Forming Unit (cfu)) and the “Dilution plate count” value ([2]; 50 ppm) was less than 10 cfu/mL. The “Streak plate rank, 3rd inoculation 24 h” value ([2]; 50 ppm) was 1 (1 = 1-5 Colony Forming Unit (cfu)), the “Streak plate rank, 2nd inoculation 72 h” value ([2]; 50 ppm) was 0 and the “Streak plate rank, 1st inoculation 24 h” value ([2]; 50 ppm, inoculum added was 5%) was 3* (3 = 16-30 cfu). The “Streak plate rank, 1st inoculation 72 h” value ([2]; 50 ppm, inoculum added was 5%) was 1* (1 = 1-5 Colony Forming Unit (cfu)), the “Dilution plate count” value ([2]; 100 ppm) was less than 10 cfu/mL and the “Streak plate rank, 3rd inoculation 24 h” value ([2]; 100 ppm) was 1 (1 = 1-5 Colony Forming Unit (cfu)). The “Streak plate rank, 2nd inoculation 72 h” value ([2]; 100 ppm) was 0, the “Streak plate rank, 1st inoculation 24 h” value ([2]; 100 ppm, inoculum added was 5%) was 4* (4 = 31-45 cfu) and the “Streak plate rank, 1st inoculation 72 h” value ([2]; 100 ppm, inoculum added was 5%) was 1* (1 = 1-5 Colony Forming Unit (cfu)).
`O=c1ccc2ccccc2o1` [Coumarin] was tested, and the “Dilution plate count” value ([1]; 500 ppm) was 3.5 × 10^6 cfu/mL, the “Streak plate rank, 3rd inoculation 24 h” value ([1]; 500 ppm) was 5c and the “Streak plate rank, 2nd inoculation 72 h” value ([1]; 500 ppm) was 5c. The “Streak plate rank, 1st inoculation 24 h” value ([1]; 500 ppm) was 5c, the “Streak plate rank, 1st inoculation 72 h” value ([1]; 500 ppm) was 5c and the “bactericidal activity (in words)” value ([1]; used individually, Table 1) was “no bactericidal activity”. For the same compound, the “Dilution plate count” value ([2]; 500 ppm) was 1.1 × 10^2 cfu/mL, the “Streak plate rank, 3rd inoculation 24 h” value ([2]; 500 ppm) was 4 (4 = 31-45 cfu) and the “Streak plate rank, 2nd inoculation 72 h” value ([2]; 500 ppm) was 2 (2 = 6-15 cfu). The “Streak plate rank, 1st inoculation 24 h” value ([2]; 500 ppm, inoculum 2%) was 3 (3 = 16-30 cfu) and the “Streak plate rank, 1st inoculation 72 h” value ([2]; 500 ppm, inoculum 2%) was 3 (3 = 16-30 cfu).
With `CCCCCCN(CCCCCC)C(=N)N.I` [N,N-dihexylguanidine HI] the “effect of guanidine on bactericidal activity of 4-isothiazolin-3-ones (in words)” value ([1]; in combination with BIT and BBIT, Tables 3 and 5) was “not achieved” and the “effect of guanidine on fungicidal activity of 4-isothiazolin-3-ones (in words)” value ([2]; in combination with BIT and BBIT, Tables 4 and 6) was “not achieved”.
